In ChEMBL document CHEMBL1201862, “PubChem BioAssay data set” (2004):
Active and inactive are the calls of the source.

Assays:
[1] = target: Polyadenylate-binding protein 1 (Homo sapiens, UniProt P11940); assay: PABP inhibition in translation initiation, SAR follow-up (AID 435018); type: functional
[2] = target: Eukaryotic translation initiation factor 4H (Homo sapiens, UniProt Q15056); assay: inhibitors of translation initiation factor eIF4H – SAR follow-up (AID 435011); type: functional
[3] = target: T1, Heat shock factor protein 1 (Mus musculus, UniProt P38532); assay: decrease of HSF1-responsive luciferase luminescence – cell-based, NIH3T3, dose retest, confirmation (AID 2382); type: functional;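 further: NIH3T3 fibroblasts with HSF1-driven luciferase reporter stressed by proteasome inhibitor MG132; luminescence from HSF1-driven luciferase expression after 8 hours of MG132 stress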
T1 sequence (P38532 whole entry): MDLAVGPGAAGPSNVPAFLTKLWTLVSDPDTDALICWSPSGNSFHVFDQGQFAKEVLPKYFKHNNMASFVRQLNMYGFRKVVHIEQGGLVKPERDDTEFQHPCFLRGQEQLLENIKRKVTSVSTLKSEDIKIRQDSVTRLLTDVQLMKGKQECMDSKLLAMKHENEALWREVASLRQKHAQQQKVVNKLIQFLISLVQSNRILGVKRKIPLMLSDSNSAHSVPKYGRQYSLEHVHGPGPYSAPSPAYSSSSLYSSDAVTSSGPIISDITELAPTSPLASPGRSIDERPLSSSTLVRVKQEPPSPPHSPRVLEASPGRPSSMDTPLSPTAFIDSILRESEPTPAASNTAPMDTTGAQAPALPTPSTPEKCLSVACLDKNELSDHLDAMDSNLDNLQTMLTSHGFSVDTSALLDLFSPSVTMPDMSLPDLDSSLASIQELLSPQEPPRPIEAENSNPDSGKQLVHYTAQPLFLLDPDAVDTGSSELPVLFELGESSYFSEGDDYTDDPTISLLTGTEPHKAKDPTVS

[4] = target: T2, Mannose-6-phosphate isomerase (Homo sapiens, UniProt P34949); assay: MPI enzyme activity inhibition – biochemical, fluorescence intensity, coupled assay, primary screen (AID 1209)
T2 sequence (P34949 whole entry): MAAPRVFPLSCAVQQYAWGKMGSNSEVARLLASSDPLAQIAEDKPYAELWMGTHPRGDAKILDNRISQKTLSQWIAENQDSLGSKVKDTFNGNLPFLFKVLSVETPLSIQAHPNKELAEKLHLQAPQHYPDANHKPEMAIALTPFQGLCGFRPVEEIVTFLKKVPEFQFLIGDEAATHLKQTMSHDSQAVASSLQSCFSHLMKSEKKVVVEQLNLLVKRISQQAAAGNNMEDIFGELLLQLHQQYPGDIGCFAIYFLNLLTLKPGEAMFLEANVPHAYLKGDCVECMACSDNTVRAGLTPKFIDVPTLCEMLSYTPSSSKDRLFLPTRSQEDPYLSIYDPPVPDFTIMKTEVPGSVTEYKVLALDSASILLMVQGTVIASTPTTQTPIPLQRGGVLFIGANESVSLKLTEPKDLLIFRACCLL

[5] = target: T2, Mannose-6-phosphate isomerase; assay: phosphomannose isomerase inhibition – biochemical, fluorescence intensity, confirmation (AID 1535)
Phosphomannomutase 2 = Phosphomannomutase 2 (Homo sapiens, UniProt O15305); assay: Counter screen SAR assay for PMM2 inhibitors via a fluorescence intensity assay. [Related pubchem assays (depositor defined):AID1545, AID1574]
Chain of Phosphomannomutase 2 (O15305 whole entry): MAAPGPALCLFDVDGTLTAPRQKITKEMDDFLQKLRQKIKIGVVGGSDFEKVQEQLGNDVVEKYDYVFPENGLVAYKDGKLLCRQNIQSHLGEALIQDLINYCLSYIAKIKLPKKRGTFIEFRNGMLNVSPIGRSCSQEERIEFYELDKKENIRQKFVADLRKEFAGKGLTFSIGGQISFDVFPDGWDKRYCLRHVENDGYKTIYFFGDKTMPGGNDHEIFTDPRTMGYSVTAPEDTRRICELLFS

[6] = target: T3, Dual specificity protein phosphatase 6 (Rattus norvegicus, UniProt Q64346); assay: inhibition of rat DUSP6 enzyme activity – biochemical, in vitro, primary screen (AID 425)
T3 sequence (Q64346 whole entry): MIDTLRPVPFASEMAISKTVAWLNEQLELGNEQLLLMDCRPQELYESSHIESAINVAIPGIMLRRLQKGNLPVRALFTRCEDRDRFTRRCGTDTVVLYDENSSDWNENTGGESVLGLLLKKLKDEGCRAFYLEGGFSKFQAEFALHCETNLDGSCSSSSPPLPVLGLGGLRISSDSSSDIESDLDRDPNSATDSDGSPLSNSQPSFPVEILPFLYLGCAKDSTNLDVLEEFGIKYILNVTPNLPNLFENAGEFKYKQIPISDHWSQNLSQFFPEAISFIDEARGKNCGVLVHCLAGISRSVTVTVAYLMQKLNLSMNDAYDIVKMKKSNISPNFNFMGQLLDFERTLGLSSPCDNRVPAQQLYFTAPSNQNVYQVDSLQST

[7] = target: T4, Tyrosine-protein phosphatase non-receptor type 22 (Homo sapiens, UniProt Q9Y2R2); assay: lymphoid phosphatase LYP inhibitors – biochemical, selectivity assay for STEP inhibitor project, dose response (AID 624241); type: functional
T4 sequence (Q9Y2R2 whole entry): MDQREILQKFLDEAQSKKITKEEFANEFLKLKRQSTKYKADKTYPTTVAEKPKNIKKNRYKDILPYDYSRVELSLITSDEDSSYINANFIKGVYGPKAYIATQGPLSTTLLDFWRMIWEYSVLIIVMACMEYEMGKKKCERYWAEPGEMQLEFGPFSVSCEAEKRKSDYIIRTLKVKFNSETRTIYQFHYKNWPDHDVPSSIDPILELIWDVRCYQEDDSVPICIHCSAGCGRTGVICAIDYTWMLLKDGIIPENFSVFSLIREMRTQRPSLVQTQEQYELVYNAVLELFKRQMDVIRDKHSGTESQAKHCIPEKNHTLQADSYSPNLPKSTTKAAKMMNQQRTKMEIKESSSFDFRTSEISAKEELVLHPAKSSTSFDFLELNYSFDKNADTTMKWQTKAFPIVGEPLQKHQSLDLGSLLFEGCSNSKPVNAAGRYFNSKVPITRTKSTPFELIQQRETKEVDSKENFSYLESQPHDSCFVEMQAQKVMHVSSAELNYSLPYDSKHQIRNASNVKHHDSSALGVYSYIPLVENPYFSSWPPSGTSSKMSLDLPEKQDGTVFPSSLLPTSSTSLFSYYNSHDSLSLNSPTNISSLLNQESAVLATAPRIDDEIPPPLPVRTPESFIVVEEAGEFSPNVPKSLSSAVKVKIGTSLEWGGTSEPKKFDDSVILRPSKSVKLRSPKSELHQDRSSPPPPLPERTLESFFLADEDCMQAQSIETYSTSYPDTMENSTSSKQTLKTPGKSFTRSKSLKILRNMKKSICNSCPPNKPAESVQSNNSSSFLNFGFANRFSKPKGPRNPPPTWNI

[8] = target: Envelope glycoprotein gp160 (Human immunodeficiency virus 1, UniProt Q6QLK5); assay: cell-free HIV fusion peptide-binding blockers – biochemical, uHTS, fluorescence dequenching, […] (AID 1986)
Chain of Envelope glycoprotein gp160 (Q6QLK5 whole entry, the tested form may be a part): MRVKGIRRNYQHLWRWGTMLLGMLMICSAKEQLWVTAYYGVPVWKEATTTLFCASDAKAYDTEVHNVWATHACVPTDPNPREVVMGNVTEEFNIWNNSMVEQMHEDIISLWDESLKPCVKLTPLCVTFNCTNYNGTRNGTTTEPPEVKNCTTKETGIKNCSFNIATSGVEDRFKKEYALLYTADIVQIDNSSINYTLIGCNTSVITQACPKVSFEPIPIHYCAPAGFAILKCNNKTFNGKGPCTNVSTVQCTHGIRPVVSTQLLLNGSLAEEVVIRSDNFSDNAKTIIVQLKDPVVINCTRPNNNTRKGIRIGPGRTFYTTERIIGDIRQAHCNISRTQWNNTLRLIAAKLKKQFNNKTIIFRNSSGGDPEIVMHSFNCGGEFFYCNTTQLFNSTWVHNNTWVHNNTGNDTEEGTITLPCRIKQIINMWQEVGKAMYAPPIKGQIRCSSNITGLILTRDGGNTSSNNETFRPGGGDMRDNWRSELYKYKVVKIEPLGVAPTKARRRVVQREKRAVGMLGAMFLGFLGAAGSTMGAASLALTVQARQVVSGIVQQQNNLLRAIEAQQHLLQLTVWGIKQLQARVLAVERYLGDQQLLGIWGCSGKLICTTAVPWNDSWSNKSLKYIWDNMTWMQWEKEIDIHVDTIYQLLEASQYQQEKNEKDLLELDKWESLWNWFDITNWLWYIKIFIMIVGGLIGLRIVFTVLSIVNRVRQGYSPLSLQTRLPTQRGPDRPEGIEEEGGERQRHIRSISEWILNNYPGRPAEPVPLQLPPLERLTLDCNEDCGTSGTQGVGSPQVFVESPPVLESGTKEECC

[9] = target: T5, Low molecular weight phosphotyrosine protein phosphatase (Homo sapiens, UniProt P24666); type: functional; conditions: read-out: IC50_Mean
T5 sequence (P24666 whole entry): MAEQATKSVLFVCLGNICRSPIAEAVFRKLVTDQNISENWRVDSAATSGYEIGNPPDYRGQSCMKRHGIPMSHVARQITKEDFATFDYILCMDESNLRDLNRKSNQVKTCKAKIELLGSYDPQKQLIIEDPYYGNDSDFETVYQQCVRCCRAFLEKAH

[10] = viability of uninfected HEp-2 cells – cell-based, HTS, cytotoxicity control for RSV inhibitor project, dose response (AID 2410); type: functional; conditions: human respiratory syncytial virus
[11] = target: T6, Dual specificity protein phosphatase 3 (Homo sapiens, UniProt P51452); assay: VHR1 phosphatase inhibitors, biochemical (AID 1878)
T6 sequence (P51452 whole entry): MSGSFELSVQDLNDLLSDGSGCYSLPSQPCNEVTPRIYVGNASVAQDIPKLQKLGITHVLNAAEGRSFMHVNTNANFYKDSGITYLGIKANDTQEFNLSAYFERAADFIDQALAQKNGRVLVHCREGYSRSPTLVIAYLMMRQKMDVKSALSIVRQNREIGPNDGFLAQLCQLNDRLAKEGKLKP

[12] = target: T7, Tyrosine-protein phosphatase non-receptor type 11 (Homo sapiens, UniProt Q06124); assay: PTPN11 enzyme inhibitors – biochemical, selectivity assay for STEP inhibitor project, dose response (AID 602367); type: functional; conditions: read-out: IC50_Mean
T7 sequence (Q06124 whole entry): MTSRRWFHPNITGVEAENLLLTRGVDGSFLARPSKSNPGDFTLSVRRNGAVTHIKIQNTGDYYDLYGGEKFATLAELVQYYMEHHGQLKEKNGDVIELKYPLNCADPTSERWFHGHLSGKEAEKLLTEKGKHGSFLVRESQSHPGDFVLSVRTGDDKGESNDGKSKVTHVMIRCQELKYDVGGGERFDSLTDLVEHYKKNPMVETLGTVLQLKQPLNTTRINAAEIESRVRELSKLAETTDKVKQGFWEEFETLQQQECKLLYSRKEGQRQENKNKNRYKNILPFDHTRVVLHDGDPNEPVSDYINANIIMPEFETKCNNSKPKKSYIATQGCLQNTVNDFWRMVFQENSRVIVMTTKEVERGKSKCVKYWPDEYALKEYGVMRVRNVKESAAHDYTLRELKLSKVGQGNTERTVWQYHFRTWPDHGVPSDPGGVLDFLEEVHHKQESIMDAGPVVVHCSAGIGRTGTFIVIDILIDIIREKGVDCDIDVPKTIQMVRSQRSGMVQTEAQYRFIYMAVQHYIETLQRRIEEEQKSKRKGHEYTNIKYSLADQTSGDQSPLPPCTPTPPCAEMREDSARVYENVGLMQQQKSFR

[13] = target: T8, Carboxy-terminal domain RNA polymerase II polypeptide A small phosphatase 1 (Homo sapiens, UniProt Q9GZU7); assay: CTDSP1 inhibitors, concentration-response, biochemical, absorbance readout, ultra-high-throughput screen actives (AID 540297); type: functional
T8 sequence (Q9GZU7 whole entry): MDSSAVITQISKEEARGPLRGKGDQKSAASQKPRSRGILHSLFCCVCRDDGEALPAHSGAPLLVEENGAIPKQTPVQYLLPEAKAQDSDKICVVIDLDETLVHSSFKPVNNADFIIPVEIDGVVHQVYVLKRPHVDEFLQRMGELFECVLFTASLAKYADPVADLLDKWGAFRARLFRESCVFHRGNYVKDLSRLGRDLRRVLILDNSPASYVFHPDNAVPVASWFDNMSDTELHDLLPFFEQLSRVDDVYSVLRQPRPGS

[14] = target: T6, Dual specificity protein phosphatase 3; assay: VHR phosphatase inhibition, dose response, selectivity assay for STEP inhibitor project, biochemical (AID 602374); type: functional; conditions: read-out: IC50_Mean
[15] = target: T4, Tyrosine-protein phosphatase non-receptor type 22; assay: PTPN22 enzyme inhibitors – biochemical, fluorescence, LYP catalytic domain, selectivity assay for LMPTP inhibitor project, dose response (AID 652006); type: functional; conditions: read-out: IC50_Mean
[16] = target: T9, Tyrosine-protein phosphatase non-receptor type 5 (Homo sapiens, UniProt P54829); assay: PTPN5 enzyme inhibition – biochemical, fluorescence intensity, uHTS hits, confirmation (AID 602372); type: functional; conditions: read-out: IC50_Mean
T9 sequence (P54829 whole entry): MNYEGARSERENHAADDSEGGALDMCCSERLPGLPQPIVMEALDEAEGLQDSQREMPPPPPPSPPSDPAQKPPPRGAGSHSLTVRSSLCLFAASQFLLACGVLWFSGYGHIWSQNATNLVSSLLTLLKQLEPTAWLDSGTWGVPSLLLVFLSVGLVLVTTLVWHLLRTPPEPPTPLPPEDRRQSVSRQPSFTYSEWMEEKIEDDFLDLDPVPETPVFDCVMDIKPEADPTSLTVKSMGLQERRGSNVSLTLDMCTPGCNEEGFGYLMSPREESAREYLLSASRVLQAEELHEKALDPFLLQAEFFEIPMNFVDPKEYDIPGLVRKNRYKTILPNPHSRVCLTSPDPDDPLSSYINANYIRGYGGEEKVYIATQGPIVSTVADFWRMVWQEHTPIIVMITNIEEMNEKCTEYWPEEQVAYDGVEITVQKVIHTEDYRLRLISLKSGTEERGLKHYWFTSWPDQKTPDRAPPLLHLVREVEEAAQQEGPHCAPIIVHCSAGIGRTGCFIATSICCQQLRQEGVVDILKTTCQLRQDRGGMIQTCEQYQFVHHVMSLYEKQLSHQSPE

[17] = target: T5, Low molecular weight phosphotyrosine protein phosphatase; type: functional; conditions: read-out: IC50_Mean; remark: listed apart in the source
[18] = target: T6, Dual specificity protein phosphatase 3; assay: VHR1 phosphatase inhibitors, primary screen, biochemical, absorbance, uHTS (AID 1654)

Chain of Polyadenylate-binding protein 1 (P11940 whole entry): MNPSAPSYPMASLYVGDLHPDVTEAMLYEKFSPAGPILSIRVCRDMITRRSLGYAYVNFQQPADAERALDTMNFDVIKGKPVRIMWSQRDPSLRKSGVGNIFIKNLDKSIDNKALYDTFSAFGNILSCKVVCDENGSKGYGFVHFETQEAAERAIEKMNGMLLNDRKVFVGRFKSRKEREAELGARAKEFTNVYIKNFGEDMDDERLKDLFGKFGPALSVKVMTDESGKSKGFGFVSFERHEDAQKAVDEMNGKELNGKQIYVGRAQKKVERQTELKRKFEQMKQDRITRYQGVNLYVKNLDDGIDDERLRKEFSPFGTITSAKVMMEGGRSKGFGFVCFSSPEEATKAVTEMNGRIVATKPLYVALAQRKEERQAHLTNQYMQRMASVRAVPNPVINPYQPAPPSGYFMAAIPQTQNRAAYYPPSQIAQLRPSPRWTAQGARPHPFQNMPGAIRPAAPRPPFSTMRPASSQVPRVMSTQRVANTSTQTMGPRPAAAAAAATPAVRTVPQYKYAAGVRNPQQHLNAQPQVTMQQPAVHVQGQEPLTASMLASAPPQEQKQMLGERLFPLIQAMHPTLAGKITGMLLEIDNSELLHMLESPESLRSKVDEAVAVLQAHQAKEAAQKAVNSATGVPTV

Q: Which results are given for `COc1ccc(CCNC(=O)CSc2ccc(-c3ccco3)nn2)cc1`?
A: IC50 [1]: > 100 µM (inactive); IC50 [2]: 70.3 µM (active); EC50 [3]: > 195 µM (not active)

Q: What does the source list for `CCc1ccc(NC2Nc3cc(C)nn3S2)cc1` (stereo not given)?
A: IC50 [4]: 8.43 µM (active); IC50 [5]: > 50 µM (inactive); IC50 (Phosphomannomutase 2): > 100 µM (inactive)

Q: Which IC50 [6] does the source give for `CCOc1cc(/C=N/NC2=NC(=O)C(CC(=O)O)S2)ccc1OCc1ccc(Cl)cc1Cl` (stereo not given) here?
A: Its IC50 is 25.6 µM (active).

Q: And the IC50 [7]?
A: The IC50 was 7.26 µM (active).

Q: And the IC50 [8]?
A: The IC50 was 13.6 µM (active).

Q: What about the IC50 [9] of the same molecule?
A: The IC50 was 8.68 µM (active).

Q: And the CC50 [10]?
A: Its CC50 is 20.8 µM (active).

Q: And the IC50 (cells)?
A: The IC50 was 34.6 µM (active).

Q: And the IC50 [11]?
A: The IC50 was 5.27 µM (active).

Q: What about the IC50 [12] of the same molecule?
A: The IC50 was 2.2 µM (active).

Q: And the IC50 [13]?
A: The IC50 was 2.32 µM (active).

Q: What about the IC50 [14] of the same molecule?
A: Its IC50 is 2.42 µM (active).

Q: And the IC50 [15]?
A: The IC50 was 22.9 µM (inactive).

Q: And the IC50 [16]?
A: Its IC50 is 4.09 µM (active).

Q: What about the IC50 [17] of the same molecule?
A: Its IC50 is 12.1 µM (active).

Q: And the IC50 [18]?
A: The IC50 was 8.44 µM (active).
